Test results reported in ChEMBL document CHEMBL4402613, “Targeting ALK2: An Open Science Approach to Developing Therapeutics for the Treatment of Diffuse Intrinsic Pontine Glioma” (J Med Chem, 2020).
Calls of active or inactive are those of the source. The calls are words filed in the database; no cut-off is given here.

Key:
[1] = molecular target: Misshapen-like kinase 1 (Homo sapiens) (UniProt Q8N4C8); assay: Inhibition of MINK (unknown origin) at 1 uM
TGF-beta receptor type-1 [2] = molecular target: T1, TGF-beta receptor type-1 (Homo sapiens, UniProt P36897); assay type: cell-based, HEK293
T1 sequence (P36897 whole entry): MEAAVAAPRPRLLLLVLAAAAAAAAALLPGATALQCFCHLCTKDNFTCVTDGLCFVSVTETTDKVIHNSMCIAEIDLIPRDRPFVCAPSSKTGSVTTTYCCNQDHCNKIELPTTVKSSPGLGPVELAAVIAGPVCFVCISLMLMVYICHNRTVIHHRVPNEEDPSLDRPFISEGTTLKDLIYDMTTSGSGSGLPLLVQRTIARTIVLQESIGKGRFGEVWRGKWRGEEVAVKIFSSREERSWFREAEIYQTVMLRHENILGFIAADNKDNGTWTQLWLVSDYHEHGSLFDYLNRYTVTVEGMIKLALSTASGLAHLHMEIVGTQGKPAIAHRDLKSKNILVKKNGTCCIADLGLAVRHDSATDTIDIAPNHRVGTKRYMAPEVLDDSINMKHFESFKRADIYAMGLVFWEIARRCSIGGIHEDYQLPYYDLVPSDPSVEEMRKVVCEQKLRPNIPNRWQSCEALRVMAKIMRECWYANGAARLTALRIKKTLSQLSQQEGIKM
Description: Inhibition of ALK5 (unknown origin) expressed in HEK293 cells transfected with CAGA-luciferase and Renilla luciferase reporter measured after 24 hrs by dual luciferase reporter assay

TGF-beta receptor type-1 [3] = molecular target: T1, TGF-beta receptor type-1; assay type: single protein
Description: Inhibition of human ALK5 using casein as substrate in presence of 10 uM [gamma33P] ATP by radioactive assay

[4] = mouse, in vivo, po, 10 mg/kg, 24 h
[5] = molecular target: Voltage-gated inwardly rectifying potassium channel KCNH2 (Homo sapiens, UniProt Q12809)
Description: Inhibition of human ERG expressed in HEK293 cells measured after 5 mins by whole cell patch clamp method

Activin receptor type-1 [6] = molecular target: Activin receptor type-1 (Homo sapiens, UniProt Q04771, R258G); assay: Inhibition of ALK2 R258G mutant (unknown origin)
[7] = human, microsomes, 1 h, 1 µM
Description: Microsomal stability in human liver microsomes assessed as parent compound remaining at 1 uM and 37 degree C measured after 60 mins in presence of NADP+ by LC-QTOF/MS analysis

[8] = mouse, microsomes, 1 h, 1 µM
Description: Microsomal stability in CD-1 mouse liver microsomes assessed as parent compound remaining at 1 uM and 37 degree C measured after 60 mins in presence of NADP+ by LC-QTOF/MS analysis

[9] = molecular target: Bone morphogenetic protein receptor type-1B (Homo sapiens) (UniProt O00238); assay: Inhibition of ALK6 (unknown origin) at 1 uM
[10] = molecular target: Bone morphogenetic protein receptor type-1A (Homo sapiens) (UniProt P36894); assay: Inhibition of ALK3 (unknown origin) at 1 uM
Activin receptor type-1 [11] = molecular target: T2, Activin receptor type-1 (Homo sapiens, UniProt Q04771); assay: Inhibition of C-terminal nanoluciferase-fused ALK2 (unknown origin) expressed in HEK293 cells incubated for 2 hrs followed by NanoBRET NanoGlo Substrate addition by NanoBRET assay; assay type: cell-based
T2 sequence (Q04771 whole entry): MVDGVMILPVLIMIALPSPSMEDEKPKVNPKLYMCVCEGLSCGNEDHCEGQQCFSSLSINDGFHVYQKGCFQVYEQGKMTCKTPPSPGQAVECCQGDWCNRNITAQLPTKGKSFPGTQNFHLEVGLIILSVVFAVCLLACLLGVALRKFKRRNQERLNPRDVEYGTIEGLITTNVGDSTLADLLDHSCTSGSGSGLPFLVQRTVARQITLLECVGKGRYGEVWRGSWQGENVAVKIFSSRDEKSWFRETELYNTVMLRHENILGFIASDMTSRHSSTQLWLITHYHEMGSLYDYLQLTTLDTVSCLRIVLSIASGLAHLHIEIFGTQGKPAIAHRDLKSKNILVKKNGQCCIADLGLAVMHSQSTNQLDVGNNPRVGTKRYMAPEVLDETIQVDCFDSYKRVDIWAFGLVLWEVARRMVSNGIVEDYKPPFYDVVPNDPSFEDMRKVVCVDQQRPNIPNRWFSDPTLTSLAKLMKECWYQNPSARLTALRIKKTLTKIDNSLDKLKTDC

in vitro = settings: human, Caco-2
Description: Apparent permeability across basolateral to apical membrane in human Caco2 cells at 5 uM incubated for 120 mins in orbital shaker by LC-QTOF/MS analysis

Cytochrome P450 2B6 = molecular target: T3, Cytochrome P450 2B6 (Homo sapiens, UniProt P20813)
T3 sequence (P20813 whole entry): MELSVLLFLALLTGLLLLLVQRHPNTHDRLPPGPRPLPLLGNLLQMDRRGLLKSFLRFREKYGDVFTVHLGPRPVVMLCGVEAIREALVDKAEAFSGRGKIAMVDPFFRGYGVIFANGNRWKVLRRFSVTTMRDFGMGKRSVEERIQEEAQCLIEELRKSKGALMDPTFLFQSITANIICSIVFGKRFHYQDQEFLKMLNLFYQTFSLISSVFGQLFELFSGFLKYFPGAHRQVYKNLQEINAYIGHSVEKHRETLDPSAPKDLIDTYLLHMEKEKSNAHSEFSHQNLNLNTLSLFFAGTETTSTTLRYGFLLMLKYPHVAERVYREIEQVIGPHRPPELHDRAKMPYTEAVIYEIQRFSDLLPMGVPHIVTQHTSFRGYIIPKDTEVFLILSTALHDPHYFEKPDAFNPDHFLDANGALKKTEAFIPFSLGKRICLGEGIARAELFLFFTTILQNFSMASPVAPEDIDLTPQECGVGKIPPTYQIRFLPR
Description: Inhibition of CYP2B6 in human liver microsomes using bupropion as substrate incubated for 40 mins in presence of NADPH by LC-MS/MS analysis

[12] = mouse, in vivo, po, 10 mg/kg, 24 h; remark: listed apart in the source
[13] = molecular target: Mitogen-activated protein kinase kinase kinase kinase 4 (Homo sapiens) (UniProt O95819); assay: Inhibition of MAP4K4 (unknown origin) at 1 uM
[14] = molecular target: T4, Serine/threonine-protein kinase A-Raf (Homo sapiens) (UniProt P10398); assay: Inhibition of ARAF (unknown origin) at 1 uM
T4 sequence (whole entry): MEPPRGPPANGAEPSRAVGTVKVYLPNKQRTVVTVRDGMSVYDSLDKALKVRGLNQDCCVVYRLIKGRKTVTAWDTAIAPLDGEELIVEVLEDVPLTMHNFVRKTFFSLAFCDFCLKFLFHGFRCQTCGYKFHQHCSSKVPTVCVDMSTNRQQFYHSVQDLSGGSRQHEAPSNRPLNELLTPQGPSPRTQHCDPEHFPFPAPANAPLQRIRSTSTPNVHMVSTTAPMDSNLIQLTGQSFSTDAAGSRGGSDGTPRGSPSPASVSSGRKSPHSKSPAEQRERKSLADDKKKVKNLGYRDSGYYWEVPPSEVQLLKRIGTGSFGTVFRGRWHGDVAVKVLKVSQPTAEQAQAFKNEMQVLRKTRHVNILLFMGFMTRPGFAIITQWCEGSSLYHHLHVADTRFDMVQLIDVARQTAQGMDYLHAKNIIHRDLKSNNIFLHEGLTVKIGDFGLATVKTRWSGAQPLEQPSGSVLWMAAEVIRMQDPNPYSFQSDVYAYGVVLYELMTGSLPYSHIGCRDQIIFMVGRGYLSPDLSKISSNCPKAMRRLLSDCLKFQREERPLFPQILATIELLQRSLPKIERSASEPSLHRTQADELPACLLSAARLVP

Sequence of Misshapen-like kinase 1 (Homo sapiens) (Q8N4C8 whole entry, looked up): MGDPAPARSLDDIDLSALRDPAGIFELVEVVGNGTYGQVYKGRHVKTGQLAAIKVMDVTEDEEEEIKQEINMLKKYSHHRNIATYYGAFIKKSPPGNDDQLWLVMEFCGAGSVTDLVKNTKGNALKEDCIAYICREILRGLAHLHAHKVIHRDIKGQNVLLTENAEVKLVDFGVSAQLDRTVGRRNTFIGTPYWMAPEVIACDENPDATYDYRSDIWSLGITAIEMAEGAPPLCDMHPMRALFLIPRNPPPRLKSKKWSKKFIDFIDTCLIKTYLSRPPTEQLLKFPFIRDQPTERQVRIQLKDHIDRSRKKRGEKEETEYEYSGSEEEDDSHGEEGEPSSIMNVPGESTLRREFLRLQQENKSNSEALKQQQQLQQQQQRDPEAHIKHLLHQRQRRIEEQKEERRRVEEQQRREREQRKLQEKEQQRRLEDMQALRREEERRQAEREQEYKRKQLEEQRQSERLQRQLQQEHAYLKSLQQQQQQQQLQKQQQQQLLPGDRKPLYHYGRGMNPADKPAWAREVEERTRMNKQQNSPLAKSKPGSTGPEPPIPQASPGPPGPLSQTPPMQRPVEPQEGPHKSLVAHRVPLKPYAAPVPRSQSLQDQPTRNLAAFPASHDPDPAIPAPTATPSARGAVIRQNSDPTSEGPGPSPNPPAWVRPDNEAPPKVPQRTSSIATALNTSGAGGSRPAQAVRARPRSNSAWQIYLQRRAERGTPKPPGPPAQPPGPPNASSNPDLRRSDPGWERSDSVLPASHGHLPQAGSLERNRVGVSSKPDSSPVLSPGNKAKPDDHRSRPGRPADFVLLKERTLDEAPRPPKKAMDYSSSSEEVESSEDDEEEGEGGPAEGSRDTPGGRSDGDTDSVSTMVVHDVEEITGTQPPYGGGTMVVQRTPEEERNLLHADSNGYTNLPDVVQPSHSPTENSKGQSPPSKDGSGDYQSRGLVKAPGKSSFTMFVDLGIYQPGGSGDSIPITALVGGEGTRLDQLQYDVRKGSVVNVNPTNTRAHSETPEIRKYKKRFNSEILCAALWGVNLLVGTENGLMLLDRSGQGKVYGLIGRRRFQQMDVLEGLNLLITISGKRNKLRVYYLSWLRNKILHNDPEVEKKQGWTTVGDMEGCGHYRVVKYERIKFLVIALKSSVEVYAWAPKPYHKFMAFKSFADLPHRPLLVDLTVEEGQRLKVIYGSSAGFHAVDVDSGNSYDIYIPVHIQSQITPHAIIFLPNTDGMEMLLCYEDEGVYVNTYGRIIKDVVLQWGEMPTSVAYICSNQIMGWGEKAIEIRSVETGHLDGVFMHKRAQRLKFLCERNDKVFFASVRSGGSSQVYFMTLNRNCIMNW
Sequence of Bone morphogenetic protein receptor type-1B (Homo sapiens) (O00238 whole entry): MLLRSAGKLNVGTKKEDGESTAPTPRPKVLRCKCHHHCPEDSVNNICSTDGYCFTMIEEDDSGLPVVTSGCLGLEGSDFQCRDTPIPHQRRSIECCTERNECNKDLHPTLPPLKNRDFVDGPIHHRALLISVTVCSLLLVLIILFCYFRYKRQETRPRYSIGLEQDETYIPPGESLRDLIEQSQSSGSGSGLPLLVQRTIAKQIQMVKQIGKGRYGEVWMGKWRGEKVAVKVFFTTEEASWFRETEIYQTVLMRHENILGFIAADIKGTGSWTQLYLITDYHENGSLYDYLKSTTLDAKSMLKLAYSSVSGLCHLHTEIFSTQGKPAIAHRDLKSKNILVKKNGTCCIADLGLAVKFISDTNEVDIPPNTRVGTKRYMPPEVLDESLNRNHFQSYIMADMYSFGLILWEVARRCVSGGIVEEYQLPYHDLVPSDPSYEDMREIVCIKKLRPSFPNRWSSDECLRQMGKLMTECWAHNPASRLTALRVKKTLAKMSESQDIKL
Sequence of Activin receptor type-1 (Homo sapiens, UniProt Q04771, R258G) (Q04771 21-509 R258G limits assumed): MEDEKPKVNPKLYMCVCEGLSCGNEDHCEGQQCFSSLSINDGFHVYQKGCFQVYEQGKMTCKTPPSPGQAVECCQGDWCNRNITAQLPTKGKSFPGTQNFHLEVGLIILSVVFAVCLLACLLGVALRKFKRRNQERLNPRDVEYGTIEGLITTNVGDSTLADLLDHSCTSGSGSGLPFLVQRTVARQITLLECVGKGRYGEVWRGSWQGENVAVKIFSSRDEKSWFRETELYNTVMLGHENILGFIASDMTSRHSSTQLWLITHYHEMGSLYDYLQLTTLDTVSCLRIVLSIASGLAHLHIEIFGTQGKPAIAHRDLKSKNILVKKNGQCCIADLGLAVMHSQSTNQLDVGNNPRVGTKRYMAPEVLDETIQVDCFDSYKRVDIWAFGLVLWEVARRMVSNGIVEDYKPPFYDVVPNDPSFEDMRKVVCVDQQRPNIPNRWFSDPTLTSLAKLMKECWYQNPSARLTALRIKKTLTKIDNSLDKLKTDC
Sequence of Voltage-gated inwardly rectifying potassium channel KCNH2 (Q12809 whole entry): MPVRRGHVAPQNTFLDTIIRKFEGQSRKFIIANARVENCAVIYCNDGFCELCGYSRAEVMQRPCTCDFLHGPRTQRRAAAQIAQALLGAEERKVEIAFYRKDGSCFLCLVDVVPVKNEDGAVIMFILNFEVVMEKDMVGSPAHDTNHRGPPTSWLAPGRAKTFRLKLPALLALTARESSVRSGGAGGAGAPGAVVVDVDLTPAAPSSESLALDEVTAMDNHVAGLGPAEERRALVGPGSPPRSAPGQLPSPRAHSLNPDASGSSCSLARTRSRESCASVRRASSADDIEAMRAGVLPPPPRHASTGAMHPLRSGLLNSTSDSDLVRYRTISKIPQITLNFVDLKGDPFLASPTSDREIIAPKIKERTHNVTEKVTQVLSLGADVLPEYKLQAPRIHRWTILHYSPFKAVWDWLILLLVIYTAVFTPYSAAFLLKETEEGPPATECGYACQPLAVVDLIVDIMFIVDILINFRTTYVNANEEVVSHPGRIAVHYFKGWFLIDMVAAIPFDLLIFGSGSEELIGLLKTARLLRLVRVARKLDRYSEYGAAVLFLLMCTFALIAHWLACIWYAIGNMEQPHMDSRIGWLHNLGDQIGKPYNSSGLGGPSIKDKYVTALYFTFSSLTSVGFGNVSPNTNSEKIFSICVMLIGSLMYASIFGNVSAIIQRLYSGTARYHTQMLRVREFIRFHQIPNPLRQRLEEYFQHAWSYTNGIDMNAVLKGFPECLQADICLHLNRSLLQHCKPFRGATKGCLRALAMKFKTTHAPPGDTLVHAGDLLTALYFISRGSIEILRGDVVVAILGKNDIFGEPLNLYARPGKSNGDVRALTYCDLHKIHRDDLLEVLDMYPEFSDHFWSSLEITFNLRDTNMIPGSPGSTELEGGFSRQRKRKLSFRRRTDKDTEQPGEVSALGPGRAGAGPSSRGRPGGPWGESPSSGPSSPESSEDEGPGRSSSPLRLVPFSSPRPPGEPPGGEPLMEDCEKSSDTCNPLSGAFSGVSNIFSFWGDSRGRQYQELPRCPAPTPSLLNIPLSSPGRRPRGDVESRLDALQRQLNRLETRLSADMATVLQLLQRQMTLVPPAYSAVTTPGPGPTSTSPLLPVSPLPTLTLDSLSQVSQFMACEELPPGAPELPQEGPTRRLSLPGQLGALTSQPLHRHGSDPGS
Sequence of Bone morphogenetic protein receptor type-1A (Homo sapiens) (P36894 whole entry, the tested form may be a part): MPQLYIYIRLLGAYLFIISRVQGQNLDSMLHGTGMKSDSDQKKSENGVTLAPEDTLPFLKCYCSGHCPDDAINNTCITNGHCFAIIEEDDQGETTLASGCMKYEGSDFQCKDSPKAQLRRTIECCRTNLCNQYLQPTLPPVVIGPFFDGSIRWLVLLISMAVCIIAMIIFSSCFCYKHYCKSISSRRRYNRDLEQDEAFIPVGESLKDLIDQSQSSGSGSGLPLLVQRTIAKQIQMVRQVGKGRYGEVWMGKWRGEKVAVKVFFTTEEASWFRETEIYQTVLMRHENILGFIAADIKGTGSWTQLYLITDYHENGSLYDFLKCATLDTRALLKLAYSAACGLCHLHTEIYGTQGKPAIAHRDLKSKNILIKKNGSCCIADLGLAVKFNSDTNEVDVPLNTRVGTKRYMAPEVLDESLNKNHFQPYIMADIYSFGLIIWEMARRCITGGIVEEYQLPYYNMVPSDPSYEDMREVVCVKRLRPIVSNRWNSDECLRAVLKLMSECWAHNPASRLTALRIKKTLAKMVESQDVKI

COc1cc(-c2cncc(-c3ccc(N4CCN(C)CC4)cc3)c2C)cc(F)c1C(N)=O
inhibition [1]: Active
IC50 (TGF-beta receptor type-1 [2]): 4300 nM
IC50 (TGF-beta receptor type-1 [3]): 1050 nM
Cmax [4]: 2140 ng/mL
IC50 [5]: > 30000 nM
IC50 (Activin receptor type-1 [6]): 17 nM
Stability [7]: Stable
Stability [8]: Stable
inhibition [9]: Active
inhibition [10]: Active
IC50 (Activin receptor type-1 [11]): 93 nM
Papp B→A at 2 h, 5 µM (in vitro): 16.2 ×10⁻⁶ cm/s
IC50 (Cytochrome P450 2B6): > 50000 nM
AUC [12]: 4056 ng·h/mL
inhibition [13]: Active
inhibition [14]: Active
